Assay results reported in ChEMBL document CHEMBL1155112, “Alkaloids from the leaves of Uncaria rhynchophylla and their inhibitory activity on NO production in lipopolysaccharide-activated microglia” (J Nat Prod, 2008).
Active and inactive are the calls of the source. The rule behind the calls is not given here.

Key:
Microglia [1] = assay: Cell viability of rat cortical microglial cells after 48 hrs by MTT assay; assay type: functional, cell-based
[2] = Inhibition of LPS-stimulated NO release in rat cortical microglial cells assessed as nitrite accumulation at 1 ug/ml after 48 hrs relative to LPS; assay type: functional; conditions: Microglia, values are per cent of control
[3] = Inhibition of LPS-stimulated NO release in rat cortical microglial cells assessed as nitrite accumulation after 48 hrs; assay type: functional; conditions: Microglia
[4] = Inhibition of LPS-stimulated NO release in rat cortical microglial cells assessed as nitrite accumulation at 10 ug/ml after 48 hrs relative to LPS; assay type: functional; conditions: Microglia, values are per cent of control
Microglia [5] = assay: Cell viability of LPS-stimulated rat cortical microglial cells after 48 hrs by MTT assay; assay type: functional, cell-based
[6] = Inhibition of LPS-stimulated NO release in rat cortical microglial cells assessed as nitrite accumulation at 100 ug/ml after 48 hrs relative to LPS; assay type: functional; conditions: Microglia, values are per cent of control
[7] = Inhibition of LPS-stimulated NO release in rat cortical microglial cells assessed as nitrite accumulation at 3 uM after 48 hrs relative to LPS; assay type: functional; conditions: Microglia, values are per cent of control
[8] = Inhibition of NO release in LPS-stimulated rat cortical microglial cells assessed as nitrite accumulation at 30 uM after 48 hrs relative to LPS; assay type: functional; conditions: Microglia, values are per cent of control

Compound	Activity (Microglia [1])	response, % of control at 1 µg/mL [2]	IC50 [3]	response, % of control at 10 µg/mL [4]	Activity (Microglia [5])	response, % of control at 100 µg/mL [6]	response, % of control at 3 µM [7]	response, % of control at 30 µM [8]
CC[C@H]1CN2CC[C@@]3(C(=O)Nc4ccccc43)[C@@H]2C[C@@H]1/C(=C\OC)C(=O)OC [ISORHYNCHOPHYLLINE]	inactive	95.2%	19 µM	76.9%	inactive	42.1%	–	–
C=C[C@H]1CN2CC[C@@]3(C(=O)Nc4ccccc43)[C@@H]2C[C@@H]1/C(=C\OC)C(=O)OC [ISOCORYNOXEINE]	inactive	92.2%	13.7 µM	73.2%	inactive	40.5%	–	–
C=C[C@H]1CN2CC[C@]3(C(=O)Nc4ccccc43)[C@@H]2C[C@@H]1/C(=C\OC)C(=O)OC [CORYNOXEINE]	inactive	86.9%	15.7 µM	74.5%	inactive	37.9%	–	–
C=C[C@@H]1CN2CC[C@@]3(C(=O)Nc4ccccc43)[C@@H]2C[C@@H]1/C(=C\OC)C(=O)O	inactive	98.8%	> 100 µM	107%	inactive	92.7%	–	–
C=C[C@H]1C(O[C@@H]2O[C@H](CO)[C@@H](O)[C@H](O)[C@H]2O)OC=C2C(=O)N3CCc4c([nH]c5ccccc45)[C@@H]3C[C@H]21 (stereo partly specified) [VINCOSIDE LACTAM]	inactive	71.8%	16.4 µM	65.7%	inactive	38.6%	–	–
C=C[C@@H]1CN2CC[C@]3(C(=O)Nc4ccccc43)[C@@H]2C[C@@H]1/C(=C\OC)C(=O)O [18,19-DEHYDROCORYNOXINIC ACID B]	inactive	81.9%	> 100 µM	84.2%	inactive	88.9%	–	–
Oc1ccc(/C=C/c2cc(O)cc(O)c2)cc1 [RESVERATROL]	–	–	11.5 µM	72.4%	–	–	92%	43.4%
CC[C@H]1CN2CC[C@]3(C(=O)Nc4ccccc43)[C@@H]2C[C@@H]1/C(=C\OC)C(=O)OC [RHYNCHOPHYLLINE]	inactive	106%	18.5 µM	75.8%	inactive	35.9%	–	–
